Literature values, collected in patent US20170027865A1, “Dry Pharmaceutical Compositions for Topical Delivery of Oral Medications, Nasal Delivery and to Treat Ear Disorders” (CMPD LICENSING LLC, priority 2013, published 2017).

Experiments:
Bordetella pertussis = settings: Gram: neg
Proteus vulgaris = settings: Gram: neg
Streptococcus pyogenes = settings: Gram: pos
Providencia stuartii = settings: Gram: neg
[1] = tested on: Acinetobacter calcoaceticus; settings: Gram: neg
Salmonella typhi = settings: Gram: neg
Yersinia pestis = settings: Yersinia pestis; Gram: neg
Clostridium perfringens = settings: Clostridium perfringens; Gram: anaer
Neisseria gonorrhoeae = settings: Gram: neg
Klebsiella oxytoca = settings: Gram: neg
Legionella pneumophila = settings: Legionella pneumophila; Gram: neg
Shigella boydii = settings: Gram: neg
Providencia rettgeri = settings: Gram: neg
Moraxella catarrhalis = settings: Gram: neg
Enterobacter cloacae = settings: Gram: neg
Neisseria meningitidis = settings: Gram: neg
Acinetobacter lwoffii = settings: Gram: neg
[2] = tested on: Staphylococcus aureus (MSSA); settings: Gram: pos
Morganella morganii = settings: Gram: neg
Vibrio cholerae = settings: Gram: neg
Brucella species = settings: Brucella species; Gram: neg
Shigella sonnei = settings: Gram: neg
Acinetobacter baumannii = settings: Gram: neg
[3] = tested on: Klebsiella (Calymmatobacterium) granulomatis; settings: Gram: neg
Serratia marcescens = settings: Gram: neg
Campylobacter jejuni = settings: Gram: neg
Citrobacter diversus = settings: Gram: neg
[4] = tested on: Corynebacterium urealyticum; settings: Gram: pos
Bartonella bacilliformis = settings: Gram: neg
Citrobacter freundii = settings: Gram: neg
Rickettsiae = settings: Rickettsiae; Gram: neg
Corynebacterium jeikeium = settings: Gram: pos
Pseudomonas fluorescens = settings: Gram: neg
Proteus mirabilis = settings: Gram: neg
Francisella tularensis = settings: Francisella tularensis; Gram: neg
Shigella flexneri = settings: Gram: neg
Escherichia coli = settings: Gram: neg
[5] = tested on: Methicillin Resistant Staph aureus (MRSA); settings: Gram: pos
Shigella dysenteriae = settings: Gram: neg
Klebsiella pneumoniae = settings: Gram: neg
Enterobacter sakazakii = settings: Gram: neg
Haemophilus influenzae = settings: Gram: neg
Haemophilus ducreyi = settings: Gram: neg
Pseudomonas aeruginosa = settings: Gram: neg
Enterobacter aerogenes = settings: Gram: neg
Bacteroides fragilis = settings: Gram: anaer
Enterococcus faecium = settings: Gram: pos
Chlamydia trachomatis = settings: Gram: n/a
Diphtheroids = settings: Gram: pos
Clostridium difficile = settings: Gram: anaer
[6] = tested on: Viridans group streptococci; settings: Gram: pos
[7] = tested on: Haemophilus parainfluenzae; settings: Gram: neg
Chlamydia psittaci = settings: Chlamydia psittaci; Gram: n/a
Streptococcus pneumoniae = settings: Gram: pos
Streptococcus agalactiae = settings: Gram: pos
Enterococcus faecalis = settings: Gram: pos
[8] = tested on: Staphylococcus epidermidis; settings: Gram: pos
Mycoplasma pneumoniae = settings: Gram: n/a
Chlamydia pneumoniae = settings: Gram: n/a
Peptostreptococcus = settings: Gram: pos

For `C/C(=C\C(=O)OCCCCCCCCC(=O)O)C[C@@H]1OC[C@H](C[C@@H]2O[C@H]2[C@@H](C)[C@H](C)O)[C@@H](O)[C@H]1O` [Bactroban], the Expected coverage (Bordetella pertussis) is given as “no”, the Expected coverage (Proteus vulgaris) is given as “no” and the Expected coverage (Streptococcus pyogenes) is given as “yes”. For the same compound, the Expected coverage (Providencia stuartii) was “no”, the Expected coverage [1] was “no” and the Expected coverage (Salmonella typhi) was “no”. For the same compound, the Expected coverage (Yersinia pestis) was “no”, the Expected coverage (Clostridium perfringens) was “no” and the Expected coverage (Neisseria gonorrhoeae) was “no”. The Expected coverage (Klebsiella oxytoca) was “no”, the Expected coverage (Legionella pneumophila) was “no” and the Expected coverage (Shigella boydii) was “no”. The Expected coverage (Providencia rettgeri) was “no”, the Expected coverage (Moraxella catarrhalis) was “no” and the Expected coverage (Enterobacter cloacae) was “no”. For the same compound, the Expected coverage (Neisseria meningitidis) was “no”, the Expected coverage (Acinetobacter lwoffii) was “no” and the Expected coverage [2] was “yes”. The Expected coverage (Morganella morganii) was “no”, the Expected coverage (Vibrio cholerae) was “no” and the Expected coverage (Brucella species) was “no”. The Expected coverage (Shigella sonnei) was “no”, the Expected coverage (Acinetobacter baumannii) was “no” and the Expected coverage [3] was “no”. The Expected coverage (Serratia marcescens) was “no”, the Expected coverage (Campylobacter jejuni) was “no” and the Expected coverage (Citrobacter diversus) was “no”. For the same compound, the Expected coverage [4] was “no”, the Expected coverage (Bartonella bacilliformis) was “no” and the Expected coverage (Citrobacter freundii) was “no”. For the same compound, the Expected coverage (Rickettsiae) was “no”, the Expected coverage (Corynebacterium jeikeium) was “no” and the Expected coverage (Pseudomonas fluorescens) was “no”. For the same compound, the Expected coverage (Proteus mirabilis) was “no”, the Expected coverage (Francisella tularensis) was “no” and the Expected coverage (Shigella flexneri) was “no”. For the same compound, the Expected coverage (Escherichia coli) was “no”, the Expected coverage [5] was “yes” and the Expected coverage (Shigella dysenteriae) was “no”. For the same compound, the Expected coverage (Klebsiella pneumoniae) was “no”, the Expected coverage (Enterobacter sakazakii) was “no” and the Expected coverage (Haemophilus influenzae) was “no”. The Expected coverage (Haemophilus ducreyi) was “no”, the Expected coverage (Pseudomonas aeruginosa) was “no” and the Expected coverage (Enterobacter aerogenes) was “no”.
For `CO/N=C(\C(=O)N[C@@H]1C(=O)N2C(C(=O)O)=C(CSc3nc(=O)c(=O)[nH]n3C)CS[C@H]12)c1csc(N)n1` [Ceftriaxone, ceftriaxone], the Expected coverage (Bacteroides fragilis) is listed as “yes”, the Expected coverage (Enterococcus faecium) is listed as “no” and the Expected coverage (Bordetella pertussis) is listed as “no”. For the same compound, the Expected coverage (Chlamydia trachomatis) was “no”, the Expected coverage (Proteus vulgaris) was “yes” and the Expected coverage (Streptococcus pyogenes) was “yes”. The Expected coverage (Providencia stuartii) was “yes”, the Expected coverage [1] was “no” and the Expected coverage (Salmonella typhi) was “yes”. The Expected coverage (Yersinia pestis) was “no”, the Expected coverage (Clostridium perfringens) was “yes” and the Expected coverage (Neisseria gonorrhoeae) was “yes”. For the same compound, the Expected coverage (Klebsiella oxytoca) was “yes”, the Expected coverage (Legionella pneumophila) was “no” and the Expected coverage (Shigella boydii) was “yes”. The Expected coverage (Diphtheroids) was “no”, the Expected coverage (Clostridium difficile) was “no” and the Expected coverage (Providencia rettgeri) was “yes”. For the same compound, the Expected coverage (Moraxella catarrhalis) was “yes”, the Expected coverage [6] was “yes” and the Expected coverage (Enterobacter cloacae) was “yes”. For the same compound, the Expected coverage (Neisseria meningitidis) was “yes”, the Expected coverage (Acinetobacter lwoffii) was “no” and the Expected coverage [7] was “yes”. For the same compound, the Expected coverage [2] was “yes”, the Expected coverage (Morganella morganii) was “yes” and the Expected coverage (Vibrio cholerae) was “no”. For the same compound, the Expected coverage (Chlamydia psittaci) was “no”, the Expected coverage (Shigella sonnei) was “yes” and the Expected coverage (Acinetobacter baumannii) was “no”. For the same compound, the Expected coverage (Streptococcus pneumoniae) was “yes”, the Expected coverage [3] was “yes” and the Expected coverage (Serratia marcescens) was “yes”. For the same compound, the Expected coverage (Streptococcus agalactiae) was “yes”, the Expected coverage (Enterococcus faecalis) was “no” and the Expected coverage (Campylobacter jejuni) was “no”. For the same compound, the Expected coverage (Citrobacter diversus) was “yes”, the Expected coverage [8] was “yes” and the Expected coverage [4] was “no”. For the same compound, the Expected coverage (Citrobacter freundii) was “yes”, the Expected coverage (Rickettsiae) was “no” and the Expected coverage (Corynebacterium jeikeium) was “no”. The Expected coverage (Proteus mirabilis) was “yes”, the Expected coverage (Francisella tularensis) was “no” and the Expected coverage (Mycoplasma pneumoniae) was “no”. For the same compound, the Expected coverage (Shigella flexneri) was “yes”, the Expected coverage (Escherichia coli) was “yes” and the Expected coverage [5] was “no”. The Expected coverage (Shigella dysenteriae) was “yes”, the Expected coverage (Klebsiella pneumoniae) was “yes” and the Expected coverage (Enterobacter sakazakii) was “yes”. The Expected coverage (Haemophilus influenzae) was “yes”, the Expected coverage (Haemophilus ducreyi) was “yes” and the Expected coverage (Pseudomonas aeruginosa) was “no”. For the same compound, the Expected coverage (Enterobacter aerogenes) was “yes”, the Expected coverage (Chlamydia pneumoniae) was “no” and the Expected coverage (Peptostreptococcus) was “yes”.
In the case of `O=C(O)c1cn(C2CC2)c2cc(N3CCNCC3)c(F)cc2c1=O` [Ciprofloxacin, ciprofloxacin], the Expected coverage (Bacteroides fragilis) is given as “no”, the Expected coverage (Enterococcus faecium) is given as “no” and the Expected coverage (Proteus vulgaris) is given as “yes”. For the same compound, the Expected coverage (Providencia stuartii) was “yes”, the Expected coverage (Salmonella typhi) was “yes” and the Expected coverage (Yersinia pestis) was “yes”. The Expected coverage (Neisseria gonorrhoeae) was “yes”, the Expected coverage (Klebsiella oxytoca) was “yes” and the Expected coverage (Legionella pneumophila) was “yes”. The Expected coverage (Shigella boydii) was “yes”, the Expected coverage (Providencia rettgeri) was “yes” and the Expected coverage (Moraxella catarrhalis) was “yes”. For the same compound, the Expected coverage (Neisseria meningitidis) was “yes”, the Expected coverage [7] was “yes” and the Expected coverage (Morganella morganii) was “yes”. For the same compound, the Expected coverage (Vibrio cholerae) was “yes”, the Expected coverage (Shigella sonnei) was “yes” and the Expected coverage (Serratia marcescens) was “yes”. The Expected coverage (Campylobacter jejuni) was “yes”, the Expected coverage (Citrobacter diversus) was “yes” and the Expected coverage [8] was “yes”. For the same compound, the Expected coverage (Bartonella bacilliformis) was “yes”, the Expected coverage (Citrobacter freundii) was “yes” and the Expected coverage (Rickettsiae) was “yes”. For the same compound, the Expected coverage (Corynebacterium jeikeium) was “no”, the Expected coverage (Pseudomonas fluorescens) was “yes” and the Expected coverage (Proteus mirabilis) was “yes”. The Expected coverage (Francisella tularensis) was “yes”, the Expected coverage (Shigella flexneri) was “yes” and the Expected coverage (Escherichia coli) was “yes”. For the same compound, the Expected coverage [5] was “no”, the Expected coverage (Shigella dysenteriae) was “yes” and the Expected coverage (Klebsiella pneumoniae) was “yes”. The Expected coverage (Haemophilus influenzae) was “yes”, the Expected coverage (Pseudomonas aeruginosa) was “yes” and the Expected coverage (Enterobacter aerogenes) was “yes”. For the same compound, the Expected coverage (Chlamydia pneumoniae) was “yes”.
